Tested on: NF-κB mediated transcription
Assay: NF-κB driven β-lactamase reporter assay in ECV-304 NF-κB.βlaZ cells (AURORA CCF2 fluorescence)
Assay type: cell-based, human
Conditions: 10 μM compound; ECV-304 NF-κB.βlaZ cells stimulated with 10 ng/mL TNF-α or 100 pg/mL IL-1β, 6 hours at 37° C.; inhibition of maximum blue/green ratio
In short: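 ECV-304 cells (clone 1E8) stably carrying a β-lactamase reporter driven by 5 HIV-1 NF-κB sites, plated in M-199 with 2% FBS, compound at 10 μM final. CCF2 read at 395 nm excitation, blue 460 nm/green 530 nm emission ratio; IC50 from dose-response curve.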

Row | Compound | Percent Inhibition at 10 μM
1 | CC1(C)OCC(NC(=O)NS(=O)(=O)NCC23CC4CC(CC(C4)C2)C3)C(c2ccccc2)O1 (stereo not drawn) [Example 104, Urea, N-(2,2-dimethyl-4-phenyl-1,3-dioxan-5-yl)-N′-[[(tricyclo[3.3.1.1^3,7]dec-1-ylmethyl)amino]sulfonyl]-, (4S-#cis/)-] | <10%

Same assay, conditions: Homo sapiens, ECV-304, 6 h, 10 μM compound; ECV-304 NF-κB.βlaZ cells stimulated with 10 ng/mL TNF-α or 100 pg/mL IL-1β, 6 hours at 37° C.; inhibition of maximum blue/green ratio; read-out: Percent Inhibition at 10 μM

Row | Compound | inhibition at 10 µM
2 | CCCN(CCC)S(=O)(=O)NC(=O)Nc1c(C(C)C)cccc1C(C)C [Example 77, Urea, N-[2,6-bis(1-methylethyl)phenyl]-N′-[(dipropylamino)sulfonyl]-] | < 10%
3 | CC(C)C[C@H](N)C(=O)Nc1cc(C(C)C)c(OS(=O)(=O)NC(=O)Cc2c(C(C)C)cc(C(C)C)cc2C(C)C)c(C(C)C)c1 [Example 216, [2-(2,4,6-Triisopropyl-phenyl)-acetyl]-sulfamic acid 4-((S)-2-amino-4-methyl-pentanoylamino)-2,6-diisopropyl-phenyl ester; compound with trifluoro-acetic acid] | 65.4%
4 | CC(C)c1cccc(C(C)C)c1OS(=O)(=O)NC(=O)Cc1cccs1 [Example 148, (Thiophen-2-yl-acetyl)-sulfamic acid 2,6-diisopropyl-phenyl ester] | < 10%
5 | CC(=O)c1ccc(OS(=O)(=O)NC(=O)Cc2c(C(C)C)cc(C(C)C)cc2C(C)C)c(C(C)C)c1 [Example 191, [(2,4,6-Triisopropyl-phenyl)-acetyl]-sulfamic acid 4-acetyl-2-isopropyl-phenyl ester] | 55.7%
6 | CC(C)c1cc(C(C)C)c(CC(=O)NS(=O)(=O)Oc2c(C(C)C)cc(NC(=O)[C@@H](N)C(C)C)cc2C(C)C)c(C(C)C)c1 [Example 232, [2-(2,4,6-Triisopropyl-phenyl)-acetyl]-sulfamic acid 4-((S)-2-amino-3-methyl-butyrylamino)-2,6-diisopropyl-phenyl ester; compound with trifluoro-acetic acid] | 76.9%
7 | CC(C)c1cccc(C(C)C)c1NC(=O)NS(=O)(=O)N(C1CCCCC1)C1CCCCC1 [Example 78, Urea, N-[2,6-bis(1-methylethyl)phenyl]-N′-[(dicyclohexylamino)-sulfonyl]-] | 40.9%
8 | CC(C)c1cc(C(C)C)c(CC(=O)NS(=O)(=O)Oc2c(C(C)C)cc(C(C)(C)C)cc2C(C)C)c(C(C)C)c1 [Example 190, [(2,4,6-Triisopropyl-phenyl)-acetyl]-sulfamic acid 4-tert-butyl-2,6-diisopropyl-phenyl ester] | 27.6%
9 | CC(C)c1cc(C(C)C)c(CC(=O)NS(=O)(=O)Oc2c(Cl)cccc2Cl)c(C(C)C)c1 [Example 193, [(2,4,6-Triisopropyl-phenyl)-acetyl]-sulfamic acid 2,6-dichloro-phenyl ester] | 38.3%
10 | CC(C)c1cccc(C(C)C)c1OS(=O)(=O)NC(=O)C(c1ccccc1)C1CCCCC1 (centres unmarked) [Example 170, (Cyclohexyl-phenyl-acetyl)-sulfamic acid 2,6-diisopropyl-phenyl ester] | 78.6%
11 | CCCCCCCCCCCCCS(=O)(=O)NC(=O)Nc1c(C(C)C)cccc1C(C)C [Example 242, N-[2,6-bis(1-methylethyl)phenyl]-N′-(tridecylsulfonyl)urea] | < 10%
12 | CC(C)c1cc(C(C)C)c(CC(=O)NS(=O)(=O)Oc2c(C(C)C)cc(NS(=O)(=O)c3cccs3)cc2C(C)C)c(C(C)C)c1 [Example 225, [(2,4,6-Triisopropyl-phenyl)-acetyl]-sulfamic acid 2,6-diisopropyl-4-(thiophene-2-sulfonylamino)-phenyl ester] | 26.4%
13 | CC(C)c1cccc(C(C)C)c1OS(=O)(=O)NC(=O)C1CC1c1ccccc1 (centres unmarked) [Example 144, (2-Phenyl-cyclopropanecarbonyl)-sulfamic acid 2,6-diisopropyl-phenyl ester] | 16.2%
14 | CC(C)c1cccc(C(C)C)c1OS(=O)(=O)NC(=O)N1CCc2ccccc21 [Example 222, (2,3-Dihydro-indole-1-carbonyl)-sulfamic acid 2,6-diisopropyl-phenyl ester] | < 10%
15 | CC(C)c1cccc(C(C)C)c1NC(=O)NS(=O)(=O)Oc1c(C(C)C)cccc1C(C)C [Example 95, Sulfamic acid, [[[2,6-bis(1-methylethyl)phenyl]amino]carbonyl]-, 2,6-bis(1-methylethyl)phenyl ester] | 33.1%

Same assay, conditions: Homo sapiens; 10 μM compound; ECV-304 NF-κB.βlaZ cells stimulated with 10 ng/mL TNF-α or 100 pg/mL IL-1β, 6 hours at 37° C.; inhibition of maximum blue/green ratio; read-out: Percent Inhibition at 10 μM

Row | Compound | inhibition at 10 µM
16 | Cc1cc(C(C)(C)C)c(OC(=O)NS(=O)(=O)N(C(C)C)C(C)C)c(C(C)(C)C)c1 [Example 32, Carbamic acid, [[bis(1-methylethyl)amino]sulfonyl]-, 2,6-bis(1,1-dimethylethyl)-4-methylphenyl ester] | 20.3%
17 | CC(C)c1cccc(C(C)C)c1OS(=O)(=O)NC(=O)Oc1ccc(F)cc1 [Example 150, Carbamic acid, [[2,6-bis(1-methylethyl)phenoxy]sulfonyl]-, 4-fluorophenyl ester] | < 10%
18 | CC(C)c1cccc(C(C)C)c1OC(=O)NS(=O)(=O)N1CCOCC1 [Example 58, Carbamic acid, (4-morpholinylsulfonyl)-, 2,6-bis(1-methylethyl)phenyl ester] | < 10%
19 | CC(=O)c1cc(C(C)C)c(OC(=O)NS(=O)(=O)Oc2c(C(C)C)cccc2C(C)C)c(C(C)C)c1 [Example 183, Carbamic acid, [[2,6-bis(1-methylethyl)phenoxy]sulfonyl]-, 4-acetyl-2,6-bis(1-methylethyl)phenyl ester] | < 10%
20 | CCCCCCCCN(CCCCCCCC)S(=O)(=O)NC(=O)Oc1c(C(C)(C)C)cc(C)cc1C(C)(C)C [Example 46, Carbamic acid, [(dioctylamino)sulfonyl]-, 2,6-bis(1,1-dimethylethyl)-4-methylphenyl ester] | 34.8%
21 | Cc1cc(C(C)(C)C)c(OC(=O)NS(=O)(=O)N(C)CCc2ccccc2)c(C(C)(C)C)c1 [Example 38, Carbamic acid, [[methyl(2-phenylethyl)amino]sulfonyl]-, 2,6-bis(1,1-dimethylethyl)-4-methylphenyl ester] | 31.5%
22 | CC(C)c1cccc(C(C)C)c1OS(=O)(=O)NC(=O)Oc1ccc(F)cc1F [Example 151, Carbamic acid, [[2,6-bis(1-methylethyl)phenoxy]sulfonyl]-, 2,4-difluorophenyl ester] | < 10%
23 | CC(C)c1cccc(C(C)C)c1OC(=O)NS(=O)(=O)N(C(C)C)C1CCCCC1 [Example 86, Carbamic acid, [[cyclohexyl(1-methylethyl)amino]sulfonyl]-, 2,6-bis(1-methylethyl)phenyl ester] | 16%
24 | CC(C)c1cccc(C(C)C)c1OC(=O)NS(=O)(=O)N(c1ccccc1)c1ccccc1 [Example 26, Carbamic acid, [(diphenylamino)sulfonyl]-, 2,6-bis(1-methylethyl)phenyl ester] | 32.8%
25 | CC(C)c1cccc(C(C)C)c1OC(=O)NS(=O)(=O)NC(c1ccccc1)C(C)C (centres unmarked) [Example 65, Carbamic acid, [[((1-methylethyl)phenylmethyl)amino]sulfonyl]-, 2,6-bis(1-methylethyl)phenyl ester] | 16.4%
26 | CC(C)c1cccc(C(C)C)c1OS(=O)(=O)NC(=O)Oc1c(C(C)C)c(C(C)C)c(F)c(C(C)C)c1C(C)C [Example 116, Carbamic acid, [[2,6-bis(1-methylethyl)phenoxy]sulfonyl]-, 4-fluoro-2,3,5,6-tetrakis(1-methylethyl)phenyl ester] | < 10%

— patent US20020183384A1, “Methods of treating nuclear factor-kappa B mediated diseases and disorders” (priority 2001, published 2002)
